In patent publication US11123320B2, “Prophylactic or therapeutic agent for hyperaciive bladder” (SBI PHARMACEUTICALS CO., LTD., priority 2017, dated 2021):

Key:
[1] = system: detrusor muscle / bladder of SHR rats; test: Cystometry (overactive status of the detrusor muscle); type: in vivo, rat; settings: 18 weeks old male SHR under urethane anesthesia, after 6 weeks oral ALA 10 or 100 mg/kg with sodium ferrous citrate; vs group without ALA
Experimental: Note that cystometry verifies the overactive status of the detrusor muscle, and is established as a method for examining overactive bladder. (1) 18 weeks old male SHR/Hos rats and Wistar/ST rat are subjected to general anesthesia by urethane (1.0 g/kg, i.p.). (2) Each rat is laid down and the extremities are fixed with packaging tape. Laparotomy is then performed, and the bladder is pressed to allow urination. Absorbent cotton with saline is placed on top to prevent drying and left for 30 minutes. (3) A catheter for cystometry is inserted into the bladder of each rat. Here, the catheter is joined to a three-way stopcock, and one end is connected to a syringe pump to continuously infuse saline into the bladder at a constant speed (12 ml/hr). The other end is connected to a pressure transducer to monitor and amplify with a pressure amplifier, and incorporated into a personal computer via Powerlab system for recording. (4) Saline is then infused and left for about 30 minutes until stable. (5) Watch the wave form to collect single urine into a 1.5 ml tube, and the weight of urine is measured. (6) Residual urine of each rat is collected and the amount is measured. (7) Peaks at similar interval and height are consecutively taken 6 times (about 1 hour).

[2] = system: overactive bladder model rats (SHR); test: Urination kinetics measurement with a metabolic cage; type: in vivo, rat; settings: male SHR, vs saline control
Experimental: Twelve weeks old male SHR (spontaneously hypertension rata) were employed as experimental rats, and the experimental groups were divided into groups I-III by ALA administration conditions below. For experimental group II, ALA and sodium ferrous citrate were orally administered on experiment start day. The dosage of ALA was set at 10 mg/kg of body weight and sodium ferrous citrate was set at 15.7 mg/kg of body weight. On the other hand, for experimental group III, ALA was set at 100 mg/kg of body weight and sodium ferrous citrate was set at 157 mg/kg of body weight. Note that for control group I, saline only at an amount equal to ALA was administered instead of ALA and sodium ferrous citrate.
For control group I, saline was orally administered every day from experiment start day (12 weeks old) to week 6 (18 weeks old).
For experimental groups II and III, ALA and sodium ferrous citrate was orally administered every day from experiment start day (12 weeks old) to week 6 (18 weeks old).
For each experimental group, urination kinetics measurement with a metabolic cage was performed. Specifically, measurements were performed at 12 weeks old (before ALA administration) and at 18 weeks old (after ALA administration) to measure single urination amount, 24-hour urination amount, and water drinking amount. Here, the method based on Yono et al., Life Sci. 2007 Jun. 27; 81(3):218-222 (non-anesthetized, unrestrained, and day-and-night continuous measurement method of mouse urination function) was adopted as the measurement method with a metabolic cage. Note that before measurement of urination kinetics, body weight, blood pressure, and heart rate were measured as a caution in addition to the urination amount and water drinking amount. Moreover, when measuring urination kinetics, total number of urination was also measured.

VEGF = VEGF ELISA in rat bladder tissue; type: in vivo; settings: male SHR, oral ALA with sodium ferrous citrate as in Example 1, vs control group
Experimental: ALA administration to a subject and the change in the amount of VEGF expression was investigated. VEGF is a vascular endothelial growth factor, and is used as a marker of bladder vascular endothelial dysfunction.
(§1) Preparation of the experimental and control groups was carried out with the method and conditions similar to the method described in Example 1.
(§2) The bladder tissue of experimental and control groups were processed with the procedure below, and used as samples.
1. Wash 100 mg of tissue with 1×[…].
2. Homogenize with 500 μl of 1×PBS.
(§3) 3. Store overnight at −20° C.
(§4) 4. Carry out freeze-thawing to destroy cell membrane, and centrifuge at 5000 G for 5 min at 4° C.
(§5) 5. Dispense and store at −20° C. or −80° C.
(§6) 6. After thawing, centrifuge again and employ for assay.
ELISA assay was performed with Rat VEGF ELISA kit (CUSABIO CSB-E04757r) according to the protocol provided by the manufacturer.

NGF = NGF ELISA in rat bladder tissue; type: in vivo; settings: male SHR, oral ALA with sodium ferrous citrate as in Example 1, vs control group
Experimental: ALA administration to a subject and the change in the amount of NGF expression was investigated. Since micturition reflex is enhanced when NGF increases in the bladder thus resulting in overactive bladder, NGF is employed as a lower urinary tract dysfunction marker.
as §1, §2
1. Wash 100 mg of tissue with 1×PBS.
2. Homogenize with 1 ml of 1×PBS.
as §3, §4, §5, §6
ELISA assay was performed with Rat NGF ELISA kit (CUSABIO CSB-E24685r) according to the protocol provided by the manufacturer.

MDA (Malondialdehyde) = test: MDA assay in rat bladder tissue; type: in vivo; settings: male SHR, oral ALA with sodium ferrous citrate as in Example 1; vs control group
Experimental: ALA administration to a subject and the change in the amount of MDA expression was investigated. MDA is one of lipid peroxidative degradation products, and is known as a major marker of lipid peroxidation.
as §1, §2
1. Subject to biomasher with 400 μl of cold assay buffer.
2. Centrifuge at 15000 rpm for 5 min at 4° C. After centrifugation, add 300 μl of buffer to the supernatant and store on ice.
3. Correct with protein concentration.
ELISA assay was performed with Malondialdehyde Assay kit (NWK-MDA01) according to the protocol provided by the manufacturer.

Nrf2 = Nrf2 ELISA in rat bladder tissue; type: in vivo; settings: male SHR, oral ALA with sodium ferrous citrate as in Example 1, vs control group
Experimental: ALA administration to a subject and the change in the amount of Nrf2 expression was investigated. Nrf2 is one of transcription factors that regulate the expression of antioxidant enzymes or detoxication metabolism enzymes to control oxidative stress, and is employed as an oxidative stress marker.
as §1, §2
1. Wash excess blood with PBS.
3. Place 600 μl of PBS on ice in a biomasher to finely mince tissue.
4. Perform ultrasonic wave treatment or freeze-thawing (−20° C./room temperature) 3 times.
5. Centrifuge at 5000 G for 5 minutes.
6. Move the supernatant to a new tube (measure protein concentration).
ELISA assay was performed with Rat NFE2L2/NRF2 ELISA kit (LSBio LS-F12145) according to the protocol provided by the manufacturer.

[3] = system: bladder blood flow of SHR rats; test: Bladder blood flow measurement (hydrogen clearance method); type: in vivo, rat; settings: male SHR after 6 weeks oral ALA 10 or 100 mg/kg with sodium ferrous citrate, vs control
Experimental: After said cystometry, bladder blood flow measurement (hydrogen clearance method) was performed according to the procedures below. (1) A silver chloride plate which is an indifferent electrode is buried under the precordium of each rat. (2) Wire platinum electrodes are incised into the bladder wall (three places in the bladder wall, data is collected 3 times each). (3) Blood flow is measured using UH-METER. Specifically, a hydrogen tank is opened to 0.3 L/min, and 100% hydrogen is directly inhaled with a funnel. Hydrogen is given until peaked, and hydrogen clearance curve is measured with the PowerLab system. The timepoint when the hydrogen clearance curve begins to drop is set at 0 second, and recording was performed for about 180 seconds. (4) The blood flow amount was calculated from the regression curve. * Half-life (T½) is determined from the regression curve Y=B−AX.

[4] = ALA 10 or 100 mg/kg with sodium ferrous citrate orally every day for 6 weeks

Compound: NCC(=O)CCC(=O)O [ALA, 5-aminolevulinic acid]
- urination interval (cystometry) [1]: extension of urination interval
- increase in single urination amount compared to the control group ([2]; ALA 10 or 100 mg/kg with sodium ferrous citrate 15.7 or 157 mg/kg orally every day for 6 weeks, measured at 18 weeks old): approximately 30%
- 24-hour urination amount compared to the control group [2, 4]: increase in 24-hour urination amount
- 24-hour water drinking amount [2, 4]: increase in water drinking amount
- amount of VEGF expression in bladder tissue (VEGF): significantly reduced
- amount of NGF expression in bladder tissue (NGF): significantly reduced
- amount of MDA expression in bladder tissue (MDA (Malondialdehyde)): significantly reduced
- amount of Nrf2 expression in bladder tissue (Nrf2): significantly reduced
- bladder blood flow amount [3]: tendency of bladder blood flow to increase ALA dosage-dependently
